Data: patent US20260345459A1, “SUBMICRON PARTICLE COMPRISING A PEPTIDE ACTIVE, PREPARATION METHOD AND USES THEREOF, IN PARTICULAR COSMETIC USES” (Sederma, priority 2023, published 2026)
Each block holds one molecule with its values, some of them ahead of it. Residues, ends and D or L forms follow the SMILES beside them. No end group written: not given here. *: point of attachment. Palmitoyl = CCCCCCCCCCCCCCCC(=O)*; Lauroyl = CCCCCCCCCCCC(=O)*

Tests used:
[1] = Accelerated stability at 40 °C; type: physicochemical
Protocol: (§1) For these studies, encapsulated peptide formulations were stored in HDPE polyethylene bottles at the study temperature (room temperature and 40 °C). At each analysis time, a new 30 g bottle is opened for the first time. All the samples are handled under regular laboratory lighting and normal air conditions. No inert gas is used to fill the bottles or to handle the samples.
The study was performed at 40 °C. At this temperature, degradation is accelerated. There is a correlation with degradation at room temperature, 90 days at 40 °C being equivalent to 1 year at room temperature. This study thus constitutes a good indicator of the stability of the encapsulated peptide suspensions according to the invention.

[2] = Characterization of the obtained suspensions at T0 (macroscopic, pH, laser diffraction particle size, polydispersity, HPLC peptide content); type: physicochemical; details: different derivatization, peptide 100 ppm
Protocol: For each suspension, the presence or absence of heterogeneous aspects, phase separation or precipitation, and colour are visually assessed through a colourless transparent bottle without the use of any instruments. The viscosity is also estimated visually in comparison with water.
The pH was measured directly in the formulation (without dilution) using a calibrated potentiometer (pH 4.0 and 7.0).
Laser diffraction technique (Mastersizer 3000™, Malvern). The suspension is added directly to the water-containing wet dispersion unit until darkening in the 2-8% range. The refractive index used is 1.456, corresponding to the index of wax, i.e. cetyl palmitate. The results are expressed in D50 corresponding to particle diameters at the 50th percentile of the particle size distribution curve, representing the mean particle size.
A range of less than 2 is considered as a narrow distribution, describing particle size homogeneity.
This is quantified using an HPLC chromatography method, with a column, mobile phase and detection appropriate to each peptide active agent. An external calibration curve is produced.
Each suspension is treated by liquid/liquid extraction of a mixture composed of isopropanol, a pH 2-2.5 buffer and an organic solvent (acetonitrile or methanol) depending on the peptide to be dosed.
For Pal-KTTKS, Pal-GHK, Pal-GQPR and Pal-VGVAPG peptides, quantification is performed, for example, by HPLC at 35 °C using a Waters Symmetry™ C18 5 μm 4.6×150 mm HPLC column, a mobile phase consisting of an eluent of 99.8/0.1/0.1 v/v/v water/orthosphoric acid/triethylamine and acetonitrile. Detection is performed at 210 nm.
For the Pal-PP peptide, for example, analysis is performed at 40 °C using a Macherey Nagel™ EC 125/4 Nucleodur 100-5 C8 ec column, a mobile phase consisting of a 99.8/0.1/0.1 v/v/v water/orthosphoric acid/triethylamine and acetonitrile eluent. Detection is performed at 210 nm. […]

[3] = Stability at room temperature; type: physicochemical
Protocol: as §1
The following encapsulated peptides were monitored: Pal-KTTKS, Pal-GHK, Pal-GQPR, Pal-KTFK, Pal-KMO2K, Pal-VGVAPG and Pal-PP.

[4] = Trypsin digestion: proof of encapsulation and half-life; type: in vitro ADME; details: role: substrate; 0.003% trypsin, acetate buffer pH=5, 25 °C, peptide 100 ppm; read-out: T1/2 (loss of 50% of the initial content)
Protocol: The study was performed on a suspension of Pal-KTTKS encapsulated according to the invention, using trypsin, an enzyme that hydrolyses a peptide whose sequence contains the amino acid lysine. The peptide is placed in the presence of trypsin and the amount of peptide remaining, i.e. not hydrolysed by trypsin, is measured as a function of time. Only the peptide released from the capsule over time is susceptible to hydrolysis.
At T0, measurements make it possible to confirm that the peptide is encapsulated.
The kinetics will then make it possible to determine the half-life, which constitutes an indicator of the peptide's accessibility to the enzyme, and therefore an indicator of the peptide's protection by the capsule.
Two solutions are compared: one containing the encapsulated peptide (100 ppm) and the other the free (i.e. non-encapsulated) peptide, also at 100 ppm. Acetate buffer solution at pH=5 containing 0.003% trypsin is added. The samples are heated to 25 °C. The enzymatic reaction is stopped to perform the measurements by adding isopropyl alcohol. Peptide quantification is performed by HPLC using the method described in paragraph B 1-4 above.
Hydrolysis monitoring is performed under the chromatographic analysis conditions described in paragraph B 1-4 above.

[5] = different derivatization, peptide 100 ppm, 1 month at 40 °C
[6] = TA1 decyl glucoside, RT, 3 months

Molecule: CCCCCCCCCCCC(=O)N[C@@H](CCCCN)C(=O)N[C@H](C(=O)N[C@@H](CO)C(=O)N[C@@H](CCCCN)C(=O)N[C@@H](CO)C(=O)O)[C@@H](C)O [Lauroyl-KTSKS] (Lauroyl-KTSKS-OH)
Stability over time [1, 5]: Yes

Molecule: CCCCCCCCCCCCCCCCOC(=O)[C@H](CCCNC(=N)N)NC(=O)[C@H](Cc1ccc(O)cc1)NC(C)=O [N-Acetyl-YR-O-hexadecyl ester, Acetyl-Tyr-Arg-hexadecyl ester]
D50 [2]: D50 (μm) = 0.234
Formation of a suspension of submicron particles [2]: Yes
pH [2]: pH 8.70
D50 [1, 5]: D50 (μm) = 0.237
Stability over time [1, 5]: Yes
pH [1, 5]: pH 8.70

Molecule: CCCCCCCC(=O)N[C@H](C(=O)N[C@@H](Cc1c[nH]c2ccccc12)C(=O)O)[C@@H](C)CC [Octanoyl-IW]
Stability over time [1, 5]: Yes

Molecule: KTTKS [H-KTTKS]
Stability over time [1, 5]: Yes

Further lines, results first:

Stability over time ([3]; 10% glycerol, 1 month): Yes
Stability over time ([3]; TA1 + TA2 (Lipoid P75-3), 3 months at RT): Yes
Stability over time [3, 6]: Yes (3 months)
Stability over time ([3]; TA1 lauryl glucoside, RT, 3 months): Yes (3 months)
Stability over time ([3]; TA1 only, without TA2, 3 months at RT): Yes
Stability over time ([3]; peptide content 100 ppm, RT, 1 month): Yes
Stability over time ([3]; peptide content 500 ppm, RT, 1 month): Yes
Stability over time ([3]; peptide content 1000 ppm, RT, 1 month): Yes
Stability over time ([3]; without glycerol, 1 month): Yes
Stability over time ([1]; TA1 + TA2 (Lipoid P75-3), 3 months at 40 °C): Yes
Stability over time ([1]; TA1 only, without TA2, 3 months at 40 °C): No: Phase
Molecule: CCCCCCCCCCCCCCCC(=O)NCC(=O)N[C@@H](Cc1c[nH]cn1)C(=O)N[C@@H](CCCCN)C(=O)O [Pal-GHK] (Palmitoyl-Gly-His-Lys-OH)

Stability over time ([3]; 2.5% wax, RT, 6 months): Yes
Stability over time ([3]; 5% wax, RT, 6 months): Yes
Stability over time [3, 6]: Yes (3 months)
Stability over time ([3]; TA1 lauryl glucoside, RT, 12 months): Yes (12 months)
stability duration ([3]; room temperature, encapsulated): up to 1 year
half-life [4]: 1 h
Stability over time [1, 5]: Yes
Molecule: CCCCCCCCCCCCCCCC(=O)N[C@@H](CCCCN)C(=O)N[C@H](C(=O)N[C@H](C(=O)N[C@@H](CCCCN)C(=O)N[C@@H](CO)C(=O)O)[C@@H](C)O)[C@@H](C)O [Pal-KTTKS] (Palmitoyl-KTTKS-OH)
